Assay results reported in patent publication US5391540A, “Substituted pyridine compounds” (Rohm and Haas Company, priority 1993, dated 1995).

How the values were obtained:
Test in all cases: Pre-emergent herbicidal activity (Table A)
Assay type in all cases: in vivo
Velvetleaf = conditions: Abutilon theophrasti, pre-emergence, Vele, 11.2 kg/ha, 10-14 days, read-out: herbicidal rating (% inhibition)
In short: (§1)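 Seeds or perennial propagules set on compacted topsoil, then covered with soil mixed with a known amount of test compound applied in acetone or water carrier. Ratings assigned on a scale based on percent inhibition of each species.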

Downy Brome = conditions: Bromus tectorum, pre-emergence, Dobr, 11.2 kg/ha, 10-14 days, read-out: herbicidal rating (% inhibition)
In short: as §1

Barnyardgrass = conditions: Echinochloa crus-galli, pre-emergence, Bygr, 11.2 kg/ha, 10-14 days, read-out: herbicidal rating (% inhibition)
In short: as §1

Yellow Nutsedge = conditions: Cyperus, pre-emergence, Yens, 11.2 kg/ha, 10-14 days, read-out: herbicidal rating (% inhibition)
In short: as §1

Cocklebur = conditions: Xanthium strumarium, pre-emergence, Cobu, 11.2 kg/ha, 10-14 days, read-out: herbicidal rating (% inhibition)
In short: as §1

Morningglory = conditions: Ipomoea, pre-emergence, Mogl, 11.2 kg/ha, 10-14 days, read-out: herbicidal rating (% inhibition)
In short: as §1

Seedling Johnsongrass = conditions: Sorghum halepense, pre-emergence, Sejg, 11.2 kg/ha, 10-14 days, read-out: herbicidal rating (% inhibition)
In short: (§2)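 Seeds were sown on compacted topsoil and covered with soil into which test compound (in acetone or water carrier) had been mixed at 11.2 kg/ha. Pans were kept watered on a greenhouse bench, and percent inhibition was scored as a rating about 10-14 days (usually 11) after treatment.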

Annual Bluegrass = conditions: pre-emergence, Anbg, 11.2 kg/ha, 10-14 days, read-out: herbicidal rating (% inhibition)
In short: as §2

Indian Mustard = conditions: Brassica juncea, pre-emergence, Inmu, 11.2 kg/ha, 10-14 days, read-out: herbicidal rating (% inhibition)
In short: as §2

Wild Buckwheat = conditions: Fallopia convolvulus, pre-emergence, Wibw, 11.2 kg/ha, 10-14 days, read-out: herbicidal rating (% inhibition)
In short: as §2

SMILES | inhibition at 11200 g/ha (Velvetleaf) [%] | inhibition at 11200 g/ha (Downy Brome) [%] | inhibition at 11200 g/ha (Barnyardgrass) [%] | inhibition at 11200 g/ha (Yellow Nutsedge) [%] | inhibition at 11200 g/ha (Cocklebur) [%] | inhibition at 11200 g/ha (Morningglory) [%] | inhibition at 11200 g/ha (Seedling Johnsongrass) [%] | inhibition at 11200 g/ha (Annual Bluegrass) [%] | inhibition at 11200 g/ha (Indian Mustard) [%] | inhibition at 11200 g/ha (Wild Buckwheat) [%]
COC(=O)c1c(OC)nc(C(F)(F)F)c(C(=O)Cl)c1C1CCC1 [Compound 138, 3-pyridinecarboxylic acid, 5-(chlorocarbonyl)-4-cyclobuty1-2-methoxy-6-(trifluoromethyl)-, methyl ester] | 0 to 24 | 0 to 24 | 0 to 24 | 0 to 24 | 0 to 24 | 0 to 24 | 0 to 24 | 0 to 24 | 0 to 24 | 0 to 24
COC(=O)c1c(OC)nc(C(F)(F)F)c(C=NCCO)c1CC(C)C [Compound 128] | 25 to 49 | 75 to 100 | 75 to 100 | 0 to 24 | 0 to 24 | 50 to 74 | 75 to 100 | 75 to 100 | 75 to 100 | 50 to 74
COc1nc(C(F)(F)F)c(C(=O)n2cccn2)c(CC(C)C)c1C(=O)SC [Compound 131, 3-pyridinecarbothioic acid, 2-methoxy-4-(2-methylpropyl)-5-(1H-pyrazo1-1-ylcarbonyl)-6-(trifluoromethyl)-, S-methyl ester] | 75 to 100 | 75 to 100 | 75 to 100 | 75 to 100 | 50 to 74 | 75 to 100 | 75 to 100 | 75 to 100 | 75 to 100 | 75 to 100
COC(=O)c1c(OC)nc(C(F)(F)F)c(C=O)c1CC1CC1 [Compound 115, 3-pyridinecarboxylic acid, 4-(cyclopropylmethyl)-5-formy1-2-methoxy-6-(trifluoromethyl)-, methyl ester] | 50 to 74 | 75 to 100 | 75 to 100 | 25 to 49 | 0 to 24 | 50 to 74 | 75 to 100 | 75 to 100 | 75 to 100 | 50 to 74
COC(=O)c1c(OC(Cl)(Cl)Cl)nc(C(F)(F)F)c(C(=O)OC)c1CC(C)C [Compound 96, 3,5-pyridinedicarboxylic acid, 4-(2-methylpropyl)-2-(trichloromethoxy)-6-(trifluoromethyl)-, dimethyl ester] | 75 to 100 | 50 to 74 | 75 to 100 | 0 to 24 | 0 to 24 | 75 to 100 | 75 to 100 | 75 to 100 | 75 to 100 | 75 to 100
COC(=O)c1c(OC)nc(C(F)(F)F)c(C#N)c1CC(C)C [Compound 106, 3-pyridinecarboxylic acid, 5-cyano-2-methoxy-4-(2-methylpropyl)-6-(trifluoromethyl)-, methyl ester] | 0 to 24 | 75 to 100 | 75 to 100 | 0 to 24 | 0 to 24 | 50 to 74 | 0 to 24 | 75 to 100 | 75 to 100 | 75 to 100
COC(=O)c1c(OC)nc(C(F)(F)F)c(N=C2CCCO2)c1CC(C)C [Compound 121, 3-pyridinecarboxylic acid, 5-[(dihydro-2(3H)-furanylidene)amino]-2-methoxy-4-(2-methylpropyl)-6-(trifluoromethyl)-, methyl ester] | 75 to 100 | 75 to 100 | 75 to 100 | 50 to 74 | 75 to 100 | 50 to 74 | 75 to 100 | 75 to 100 | 75 to 100 | 75 to 100
COC(=O)c1c(OC)nc(C(F)(F)F)c(C(=O)n2cc(Cl)cn2)c1CC(C)C [Compound 104] | 50 to 74 | 50 to 74 | 75 to 100 | 0 to 24 | 0 to 24 | 50 to 74 | 75 to 100 | 75 to 100 | 75 to 100 | 50 to 74
COC(=O)c1c(OC)nc(C(F)(F)F)c(C(=O)n2cc(C#N)cn2)c1CC(C)C [Compound 111, 3-pyridinecarboxylic acid, 5-[(4-cyano-1H-pyrazo1-1-yl)carbonyl]-2-methoxy-4-(2-methylpropyl)-6-(trifluoromethyl)-, methyl ester] | 75 to 100 | 50 to 74 | 75 to 100 | 0 to 24 | 0 to 24 | 75 to 100 | 75 to 100 | 75 to 100 | 75 to 100 | 75 to 100
COC(=O)c1c(OC)nc(C(F)(F)F)c(-c2nccs2)c1CC(C)C [Compound 129, 3-pyridinecarboxylic acid, 2-methoxy-4-(2-methylpropyl)-5-(2-thiazolyl)-6-(trifluoromethyl)-, methyl ester] | 75 to 100 | 75 to 100 | 75 to 100 | 75 to 100 | 50 to 74 | 75 to 100 | 75 to 100 | 75 to 100 | 75 to 100 | 75 to 100
COc1nc(C(F)(F)F)c(C=O)c(CC(C)C)c1C(=O)SC [Compound 135, 3-pyridinecarbothioic acid, 5-formy1-2-methoxy-4-(2-methylpropyl)-6-(trifluoromethyl)-, S-methyl ester] | 50 to 74 | 75 to 100 | 75 to 100 | 0 to 24 | 0 to 24 | 0 to 24 | 50 to 74 | 75 to 100 | 75 to 100 | 25 to 49
COC(=O)c1c(OC)nc(C(F)(F)F)c(C2OCCCO2)c1CC(C)C [Compound 110, 3-pyridinecarboxylic acid, 5-(1,3-dioxan-2-yl)-2-methoxy-4-(2-methylpropyl)-6-(trifluoromethyl)-, methyl ester] | 75 to 100 | 75 to 100 | 75 to 100 | 50 to 74 | 75 to 100 | 75 to 100 | 75 to 100 | 75 to 100 | 75 to 100 | 75 to 100
COC(=O)c1c(OC)nc(C(F)(F)F)c(C(=O)OCC(F)(F)F)c1CC(C)C [Compound 112, 3,5-pyridinedicarboxylic acid, 2-methoxy-4-(2-methylpropyl)-6-(trifluoromethyl)-, 3-methyl 5-(2,2,2-trifluoroethyl) ester] | 75 to 100 | 75 to 100 | 75 to 100 | 0 to 24 | 0 to 24 | 50 to 74 | 75 to 100 | 75 to 100 | 75 to 100 | 75 to 100
